# According to patent US20070048247A1, “Deodorizing tablets” (Kimberly-Clark Worldwide, Inc., priority 2005, published 2007):
# Key:
# [1] = Example 3 secondary (non-urine) odor ranking; parameters: species or system Human; details: for Secondary Odor Ranking: individual panelist scores, scale 1 to 5, 5 extremely unpleasant
# Procedure: (§1) The effectiveness of various quinone compounds in reducing urine odor was compared. […] Human female urine was initially collected and pooled by a nurse on staff at Kimberly-Clark Corporation. The pooled urine was added to mason jars in 50-milliliter aliquots using an automated pipette aid. […] The mason jars were placed in an incubator overnight at 37° C.
# (§2) In addition to ranking the jars from least to most malodorous (on a scale from 1 to 7, with 7 being the most malodors), panelists were also asked to judge whether there were secondary (non-urine) odors present and, if so, the extent that the secondary odors were unpleasant (on a scale from 1 to 5, with 5 being extremely unpleasant).
# [2] = Example 3 urine odor panel ranking; parameters: species or system Human; details: for Average Urine Odor Ranking (with statistical corrections), Avg. Score: ignoring statistical anomalies
# Procedure: as §1, §2
# In this assessment, panelists were given instructions to rank the least malodorous jar as “1” and the most malodorous jar as “10,” remaining free to rank the other jars between 2-9.
# [3] = Example 5 urine odor panel ranking; parameters: species or system Human
# Procedure: Assessments were conducted the following day by asking panelists to rate each jar from 1 (least urine malodor) to 8 (most urine malodor). The results are set forth below in Tables 15-18.
# [4] = Solubility of powder in urine
# [5] = Example 6 urine odor panel ranking; parameters: species or system Human; details: as Example 5, 1 least, 8 most urine malodor
# Description: The quinone compounds chosen for this example were Alizarin Blue Black B, Remazol Brilliant Blue R and Acid Green 25. The results are set forth below in Tables 19 and 20.
# [6] = Example 7 urine odor panel ranking (16 millimolar); parameters: species or system Human; details: 16 millimolar in urine, 1 least, 10 most urine malodor
# Procedure: The effectiveness of various quinone compounds in reducing urine odor was compared. […] Human female urine was initially collected and pooled at Kimberly-Clark Corporation. The pooled urine was added to mason jars in 50-milliliter aliquots using an automated pipette aid. Powders of the aforementioned quinone compounds (commercially available from Sigma-Aldrich Chemical Co., Inc. of St. Louis, Missouri and Noveon Hilton Davis, Inc. of Cincinnati, Ohio) were weighed and placed into the mason jars containing 50 milliliters of urine so that the final concentration of the powder was 16 millimolar (equivalent to 1 wt. %). The mason jars were placed in an incubator overnight at 37° C. The experimental setup is set forth in more detail below in Table 21.
# Jars were wrapped in foil and placed in an incubator at 37° C. overnight. The jars were divided into four groups (C-F), each sharing the same control jar of urine alone (no powder). Assessments were conducted the following day by asking panelists to rate each jar from 1 (least urine malodor) to 10 (most urine malodor).
# [7] = Example 1 urine odor panel ranking; parameters: species or system Human; details: 8 millimolar in urine
# Description: Human female urine was initially collected and pooled by a nurse on staff at Kimberly-Clark Corporation. […] Powders of Acid Blue 129 and Acid Green 27 (commercially available from Sigma-Aldrich Chemical Co., Inc. of St. Louis, Mo.), as well as D&C Green No. 5 (commercially available from Noveon Hilton Davis, Inc. of Cincinnati, Ohio), were then weighed and placed into the mason jars containing 50 milliliters of urine so that the final concentration of the powder was 8 millimolar (equivalent to 0.5 wt. %). […] A score of “10” was assigned to the most malodorous jar and a score of “1” was assigned to the least malodorous jar.
# [8] = Example 3 first grouping, 8 millimolar in urine, scale 1 to 7, 7 most malodorous
# [9] = Example 5 Group B, 8 mM in urine, 1 least, 8 most urine malodor
# [10] = Example 5, 8 mM in 50 milliliters of urine
# [11] = Example 7, 16 mM in 50 milliliters of urine
# [12] = Example 3 second grouping, 8 millimolar in urine, 1 least malodorous
# [13] = after 6 hours, 1 least, 10 most malodorous
# [14] = after 24 hours, 1 least, 10 most malodorous
# [15] = Example 3 top performers of both groupings, after 24 hours, 1 least, 10 most malodorous
# [16] = Example 3 top performers, after 24 hours
# [17] = Example 3 top performers, after 24 hours, 1 least, 10 most malodorous
# [18] = Example 5 Group A, 8 mM in urine, 1 least, 8 most urine malodor
compound,measurement,setting,value
"O=C1C=C(S(=O)(=O)[O-])c2ccccc2C1=O.[K+] [1,2 Naphthaquinone]",secondary odor (in words),[1]; Example 3 first grouping,unpleasant secondary smell was found to be present
same,urine odor reduction (in words),[2]; Example 3 first grouping,effectively reduced urine odor
same,"Average Urine Odor Ranking, Avg. Score",[2]; [8],3.8
same,Urine Odor Ranking 2 (number of panelists),[2]; [8],1
same,Urine Odor Ranking 3 (number of panelists),[2]; [8],2
same,Urine Odor Ranking 4 (number of panelists),[2]; [8],1
same,Urine Odor Ranking 7 (number of panelists),[2]; [8],1
Nc1cc(S(=O)(=O)[O-])c(O)c2c1C(=O)c1c(O)c(S(=O)(=O)[O-])cc(N)c1C2=O.[Na+].[Na+] [Acid Blue 45],odor reduction performance (in words),[3]; Example 5 Group B,performed well
same,"Average Rankings (Group B), Avg. Score",[3]; [9],3.75
same,Urine Odor Ranking 1 (number of panelists),[3]; [9],2
same,Urine Odor Ranking 6 (number of panelists),[3]; [9],1
same,Urine Odor Ranking 7 (number of panelists),[3]; [9],1
same,Soluble?,[4]; [10],Yes
same,Soluble?,[4]; [11],Mostly
same,"Average Rankings, Avg. Score",[5],5.5
same,Urine Odor Ranking 2 (number of panelists),[5],1
same,Urine Odor Ranking 6 (number of panelists),[5],1
same,Urine Odor Ranking 7 (number of panelists),[5],2
same,"Average Urine Odor Ranking, Avg. Score",[2]; [12],3.4
same,Urine Odor Ranking 2 (number of panelists),[2]; [12],1
same,Urine Odor Ranking 3 (number of panelists),[2]; [12],2
same,Urine Odor Ranking 4 (number of panelists),[2]; [12],1
same,Urine Odor Ranking 5 (number of panelists),[2]; [12],1
same,"Average Rankings (Group E), Avg. Score",[6]; Example 7 Group E,6.4
same,Urine Odor Ranking 3 (number of panelists),[6]; Example 7 Group E,2
same,Urine Odor Ranking 8 (number of panelists),[6]; Example 7 Group E,2
same,Urine Odor Ranking 10 (number of panelists),[6]; Example 7 Group E,1
Cc1cc(C)c(Nc2cc(S(=O)(=O)[O-])c(N)c3c2C(=O)c2ccccc2C3=O)c(C)c1.[Na+] [Acid Blue 129],odor reduction performance (in words),[3]; Example 5 Group B,performed well
same,"Average Rankings (Group B), Avg. Score",[3]; [9],5
same,Urine Odor Ranking 2 (number of panelists),[3]; [9],1
same,Urine Odor Ranking 5 (number of panelists),[3]; [9],1
same,Urine Odor Ranking 6 (number of panelists),[3]; [9],1
same,Urine Odor Ranking 7 (number of panelists),[3]; [9],1
same,Soluble?,[4]; [10],Mostly
same,Soluble?,[4]; [11],Somewhat
same,reducing urine malodor (in words),[7],functioned effectively in reducing urine malodor
same,Avg. Ranking (odor),[7]; [13],1.6
same,Ranking 1 (number of panelists),[7]; [13],4
same,Ranking 4 (number of panelists),[7]; [13],1
same,Avg. Ranking (odor),[7]; [14],1.3
same,Ranking 1 (number of panelists),[7]; [14],5
same,Ranking 3 (number of panelists),[7]; [14],1
same,"Average Urine Odor Ranking, Avg. Score",[2]; [12],1.8
same,Urine Odor Ranking 1 (number of panelists),[2]; [12],3
same,Urine Odor Ranking 3 (number of panelists),[2]; [12],2
same,Urine Odor Ranking 1 (number of panelists),[2]; [15],1
same,Urine Odor Ranking 3 (number of panelists),[2]; [15],1
same,Urine Odor Ranking 4 (number of panelists),[2]; [15],1
same,Urine Odor Ranking 5 (number of panelists),[2]; [15],1
same,Urine Odor Ranking 6 (number of panelists),[2]; [15],1
same,odor reduction (in words),[2]; [16],achieved the best odor reduction
same,"Average Urine Odor Ranking, Avg. Score",[2]; [17],3.8
same,"Average Urine Odor Ranking (with statistical corrections), Avg. Score",[2]; [16],3.8
same,"Average Rankings (Group E), Avg. Score",[6]; Example 7 Group E,6
same,Urine Odor Ranking 1 (number of panelists),[6]; Example 7 Group E,1
same,Urine Odor Ranking 4 (number of panelists),[6]; Example 7 Group E,1
same,Urine Odor Ranking 7 (number of panelists),[6]; Example 7 Group E,1
same,Urine Odor Ranking 9 (number of panelists),[6]; Example 7 Group E,2
Cc1ccc(Nc2ccc(Nc3ccc(C)cc3S(=O)(=O)[O-])c3c2C(=O)c2c(O)ccc(O)c2C3=O)c(S(=O)(=O)[O-])c1.[Na+].[Na+] [Acid Green 41],"Average Rankings (Group A), Avg. Score",[3]; [18],4.25
same,Urine Odor Ranking 2 (number of panelists),[3]; [18],1
same,Urine Odor Ranking 3 (number of panelists),[3]; [18],1
same,Urine Odor Ranking 5 (number of panelists),[3]; [18],1
same,Urine Odor Ranking 7 (number of panelists),[3]; [18],1
same,Secondary Odor Ranking,[1]; Example 3 first grouping,1
same,Soluble?,[4]; [10],Yes
same,Soluble?,[4]; [11],Yes
same,"Average Rankings, Avg. Score",[5],5.25
same,Urine Odor Ranking 3 (number of panelists),[5],1
same,Urine Odor Ranking 4 (number of panelists),[5],1
same,Urine Odor Ranking 6 (number of panelists),[5],1
same,Urine Odor Ranking 8 (number of panelists),[5],1
same,urine odor reduction (in words),[2]; Example 3 first grouping,functioned effectively to reduce odor
same,"Average Urine Odor Ranking, Avg. Score",[2]; [8],2.4
same,Urine Odor Ranking 1 (number of panelists),[2]; [8],1
same,Urine Odor Ranking 2 (number of panelists),[2]; [8],2
same,Urine Odor Ranking 3 (number of panelists),[2]; [8],1
same,Urine Odor Ranking 4 (number of panelists),[2]; [8],1
same,Urine Odor Ranking 1 (number of panelists),[2]; [15],1
same,Urine Odor Ranking 2 (number of panelists),[2]; [15],2
same,Urine Odor Ranking 3 (number of panelists),[2]; [15],1
same,Urine Odor Ranking 7 (number of panelists),[2]; [15],1
same,odor reduction (in words),[2]; [16],achieved the best odor reduction
same,"Average Urine Odor Ranking, Avg. Score",[2]; [17],3.0
same,"Average Urine Odor Ranking (with statistical corrections), Avg. Score",[2]; [16],2.0
same,"Average Rankings (Group D), Avg. Score",[6]; Example 7 Group D,1.4
same,Urine Odor Ranking 1 (number of panelists),[6]; Example 7 Group D,4
same,Urine Odor Ranking 3 (number of panelists),[6]; Example 7 Group D,1
Cc1ccc(Nc2ccc(Nc3ccc(C)cc3S(=O)(=O)[O-])c3c2C(=O)c2ccccc2C3=O)c(S(=O)(=O)[O-])c1.[Na+].[Na+] [Acid Green 25],"Average Rankings (Group A), Avg. Score",[3]; [18],3
same,Urine Odor Ranking 2 (number of panelists),[3]; [18],1
same,Urine Odor Ranking 3 (number of panelists),[3]; [18],2
same,Urine Odor Ranking 4 (number of panelists),[3]; [18],1
same,secondary odor (in words),[1]; Example 3 first grouping,not found to be unpleasant by most panelists
same,Soluble?,[4]; [10],Yes
same,Soluble?,[4]; [11],Mostly
same,"Average Rankings, Avg. Score",[5],2.25
same,Urine Odor Ranking 1 (number of panelists),[5],2
same,Urine Odor Ranking 2 (number of panelists),[5],1
same,Urine Odor Ranking 5 (number of panelists),[5],1
same,urine odor reduction (in words),[2]; Example 3 first grouping,functioned effectively to reduce odor
same,"Average Urine Odor Ranking, Avg. Score",[2]; [8],2.2
same,Urine Odor Ranking 1 (number of panelists),[2]; [8],3
same,Urine Odor Ranking 2 (number of panelists),[2]; [8],1
same,Urine Odor Ranking 6 (number of panelists),[2]; [8],1
same,"Average Urine Odor Ranking, Avg. Score",[2]; [12],4.4
same,Urine Odor Ranking 1 (number of panelists),[2]; [15],3
same,Urine Odor Ranking 2 (number of panelists),[2]; [15],1
same,Urine Odor Ranking 10 (number of panelists),[2]; [15],1
same,odor reduction (in words),[2]; [16],achieved the best odor reduction
same,"Average Urine Odor Ranking, Avg. Score",[2]; [17],3.0
same,"Average Urine Odor Ranking (with statistical corrections), Avg. Score",[2]; [16],1.3
same,"Average Rankings (Group F), Avg. Score",[6]; Example 7 Group F,3.2
same,Urine Odor Ranking 1 (number of panelists),[6]; Example 7 Group F,2
same,Urine Odor Ranking 2 (number of panelists),[6]; Example 7 Group F,1
same,Urine Odor Ranking 6 (number of panelists),[6]; Example 7 Group F,2
"CCN(Cc1cccc(S(=O)(=O)[O-])c1)c1ccc(C(=C2C=CC(=[N+](CC)Cc3cccc(S(=O)(=O)[O-])c3)C=C2)c2ccccc2S(=O)(=O)[O-])cc1.[Na+].[Na+] [FD&C Blue No. 1, FD&C Blue No.1, reference compound]",Secondary Odor Ranking,[1]; Example 3 first grouping,3
same,"Average Urine Odor Ranking, Avg. Score",[2]; [8],4.8
same,Urine Odor Ranking 4 (number of panelists),[2]; [8],1
same,Urine Odor Ranking 5 (number of panelists),[2]; [8],4
"O=C1C=C(S(=O)(=O)[O-])C(=O)c2ccccc21.[K+] [1,4 Naphthaquinone, 1,4 naphthaquinone-2-sulfonic acid potassium salt]",secondary odor (in words),[1]; Example 3 second grouping,unpleasant secondary odor
same,"Average Urine Odor Ranking, Avg. Score",[2]; [12],1.8
same,Urine Odor Ranking 1 (number of panelists),[2]; [12],2
same,Urine Odor Ranking 2 (number of panelists),[2]; [12],2
same,Urine Odor Ranking 3 (number of panelists),[2]; [12],1
